What all share (test): Cell proliferation inhibition experiment, CellTiter-Glo (CTG) method
Holding throughout (type): cell-based
On the technique in general: ATP-based viability assays read luminescence as a measure of living cells.

One assay has as its system NCI-H1975. Conditions: for IC50: Homo sapiens, NCI-H1975, 72 h, NCI-H1975 cells, CTG, 3 days; for A-431/NCI-H1975 Selectivity: ratio of A-431 IC50 to NCI-H1975 IC50. How it is done: (§1) Cell Proliferation Inhibition Experiment
(§2) Compounds were tested in the selected cell lines, and solvent is set as control, nine concentrations were detected with three parallel wells for each concentration.
(§3) 2. Reagents and Materials • 1) fetal bovine serum FBS (GIBCO, Cat #10099-141) • 2) CellTiter-Glo® Luminescent Cell Viability Assay (Promega, Cat #G7572) • 3) 96-well plate with flat clear bottom, black wall plates (Corning®, Cat #3340)
(§4) The first day: Incubation and plant of cells • 1) Cells in logarithmic growth phase were harvested and counted by cell counter. Cell viability was detected by trypan blue exclusion assay to ensure that the viability of each cell line was above 90%. • 2) Cell concentration was adjusted by diluting complete culture medium, and 90 μL cell suspension was added to a 96-well plate (T0 plate and drug plate to be tested) to make the cell density reach the specified concentration. • 3) Cells in 96-well plate were incubated overnight at condition of 37° C., 5% CO2 and 95% humidity.
(§5) The second day: Reading T0 plate • 1) 10 μL culture medium was added to T0 plate. • 2) CTG reagent was melt, while the cell plate was balanced to room temperature for 30 minutes. • 3) The same volume of CTG solution was added to each well. • 4) The cell plate was vibrated for 2 minutes on an orbital shaker to lyze the cells. • 5) The cell plate was placed at room temperature for 10 minutes to stabilize the cold light signal. • 6) The cold light value was read with EnVision.
(§6) Drug Addition • 1) Drug dilution. The compounds to be tested were dissolved and packaged, then a gradient elution was performed to obtain a solution diluted 10 times. • 2) Drug addition. […] drug solution was added into each well of the 96-well plate, which was inoculated cells, three parallel wells were set for each cell concentration.
(§7) The third day: reading plate at the terminal • 1) CTG reagent was melt, while the cell plate was balanced to room temperature for 30 minutes. • 2) The same volume of CTG solution was added to each well. • 3) The cell plate was vibrated for 2 minutes on an orbital shaker to lyze the cells. • 4) The cell plate was placed at room temperature for 10 minutes to stabilize the cold light signal. • 5) The cold light value was read with EnVision
(§8) Data were analyzed using GraphPad Prism 5.0 software, and non-linear S curve regression was used for fitting the data to give a dose-effect curve, IC50 value was calculated accordingly. Cell Survival Rate (%)=(Lumdrugs−Lumcontrol)/(Lumcell−Lumcontrol)×100%.

In a further assay the test system is PC-9. Conditions: Homo sapiens, PC-9, 72 h, PC-9 cells, 3 days. How it is done: as §1, §2, §3, §4, §5, §6, §7, §8
In the next assay the test system is A-431. Conditions: Homo sapiens, A-431, 72 h, A-431 cells, 3 days. How it is done:
as §1, §2, §3, §4, §5
Drug Addition • 1) Drug dilution. The compounds to be tested were dissolved and packaged, then a gradient elution was performed to obtain a solution diluted 10 times. • 2) Drug addition. […] drug solution was added into each well of the 96-well plate, which was inoculated cells, three parallel wells were set for each cell concentration. The highest concentration of the compounds to be tested on A-431 was 30 μM, nine concentrations was set with 3 times dilution; while the highest concentration on NCI-H1975 and PC-9 was 1.111 μM, 9 concentrations was set with 3 times dilution. • 3) Culture. Cells in 96-well plates in which drugs have been added were cultured at condition of 37° C., 5% CO2 and 95% humidity for 3 days, and then CTG assay was performed respectively.
as §7, §8

Each structure is given as a SMILES string.

By IC50 is commonly meant the concentration that gives 50% inhibition. Read a low IC50 as greater potency. Regarding `C=CC(=O)Nc1cc(Nc2cc(-c3ccc4c(cnn4C(C)C)c3)ncn2)c(OC)cc1N1CCC(C2CCN(C)CC2)CC1` [compound 86], the IC50 was found to be 91.6 nM in the assay on NCI-H1975, 76.4 nM with PC-9 and 1780 nM in the assay with A-431. For the same compound, in the assay on NCI-H1975, the “A-431/NCI-H1975 Selectivity” value was 19.4.
Take `C=CC(=O)Nc1cc(Nc2cc(-c3ccc4c(cnn4C)c3)ncn2)c(OC(F)F)cc1N1CCC(N2C[C@@H](C)O[C@@H](C)C2)CC1` [compound 148]: the IC50 in the assay on NCI-H1975 is 28.7 nM; with PC-9 it was 31.9 nM; in the assay on A-431 it was 1350 nM. In addition, the “A-431/NCI-H1975 Selectivity” value with NCI-H1975 is on record as 46.9.
For the compound `C=CC(=O)Nc1cc(Nc2cc(-c3ccc4c(cnn4C)c3)ncn2)c(OC)cc1N1CCN(C2CCN(C)CC2)CC1` [compound 133], the figures for the IC50 in the assay on NCI-H1975, in the assay on PC-9 and in the assay on A-431 were 9.9 nM, 10.7 nM and 598 nM, respectively. In addition, the “A-431/NCI-H1975 Selectivity” value with NCI-H1975 stood at 60.4.
The corresponding values for `C=CC(=O)Nc1cc(Nc2cc(-c3cc4cnn(C)c4cc3F)ncn2)c(OC)cc1OCCN(C)C` [compound 194] are 75.2 nM, 45.8 nM, 1640 nM and 21.8.
Consider `C=CC(=O)Nc1cc(Nc2nccc(-c3ccc4c(cnn4C)c3)n2)c(OCC)cc1N(C)CCN(C)CC` [compound 258], for which the IC50 in the assay with NCI-H1975 came to 51.6 nM; with PC-9, 32.4 nM; in the assay on A-431, 2950 nM. In addition, the “A-431/NCI-H1975 Selectivity” value in the assay with NCI-H1975 turned out to be 57.1.
As to `C=CC(=O)Nc1cc(Nc2cc(-c3ccc4c(cnn4C)c3)ncn2)c(OC)cc1N1CCN(C(=O)CN(C)C)CC1` [compound 135], the half-inhibitory concentration (IC50) in the assay with NCI-H1975 is 15.4 nM; in the assay with PC-9, 17.7 nM; in the assay with A-431, 756 nM.
Regarding `C=CC(=O)Nc1cc(Nc2cc(-c3ccc4c(cnn4C)c3)ncn2)c(OCC)cc1N(C)CCN1CCN(C)CC1` [compound 119], the 50% inhibitory concentration (IC50) in the assay on NCI-H1975 amounted to 23.1 nM; with PC-9 it was 17.8 nM; in the assay on A-431, 1250 nM. Further, in the assay with NCI-H1975, the “A-431/NCI-H1975 Selectivity” value is on record as 54.0.
For the compound `C=CC(=O)Nc1cc(Nc2cc(-c3ccc4nn(C)cc4c3)ncn2)c(OC)cc1N(C)CCN(C)C` [compound 7], the IC50 in the assay with NCI-H1975 came out at 11.1 nM; in the assay with PC-9, 10.7 nM; in the assay with A-431, 129 nM. The “A-431/NCI-H1975 Selectivity” value with NCI-H1975 stood at 11.6.
The corresponding values for `C=CC(=O)Nc1cc(Nc2nccc(-c3ccc4c(cnn4C)c3)n2)c(OC)cc1N(C)CCN1CCN(C(C)=O)CC1` [compound 254] are 132 nM, 30.9 nM, 2270 nM and 17.2.
Regarding `C=CC(=O)Nc1cc(Nc2nccc(-c3ccc4c(cnn4C)c3)n2)c(OC)cc1N1CCC(N2CCN(C(C)=O)CC2)CC1` [compound 253], the IC50 in the assay on NCI-H1975 was 62.2 nM; in the assay with PC-9, 32.1 nM; in the assay with A-431, 2490 nM. For the same compound, in the assay on NCI-H1975, the “A-431/NCI-H1975 Selectivity” value was 40.0.
Regarding `C=CC(=O)Nc1cc(Nc2cc(-c3ccc4c(cnn4C)c3)ncn2)c(OC)cc1N(C)CCN(C)C(C)=O` [compound 76], the IC50 turned out to be 87.3 nM with NCI-H1975, 57.9 nM in the assay on PC-9 and 9450 nM with A-431. Moreover, the “A-431/NCI-H1975 Selectivity” value with NCI-H1975 is on record as 108.3.
Take `C=CC(=O)Nc1cc(Nc2cc(-c3cc4cnn(C)c4cc3F)ncn2)c(OC)cc1N1C[C@@H](C)N(C)[C@@H](C)C1` [compound 192]: the values for the 50% inhibitory concentration (IC50) with NCI-H1975, with PC-9 and in the assay with A-431 were 47 nM, 33 nM and 1840 nM, respectively. Besides, the “A-431/NCI-H1975 Selectivity” value with NCI-H1975 is 39.2.
In the same order, the values of `C=CC(=O)Nc1cc(Nc2cc(-c3ccc4c(cnn4C)c3)ncn2)c(OC)cc1N1CCN(C(C)C)CC1` [compound 19] are 18.1 nM, 10.7 nM, 850 nM and 47.0.
In the same order, the values of `C=CC(=O)Nc1cc(Nc2cc(-c3ccc4cnn(C)c4c3)ncn2)c(OC)cc1N1CCC(C2CCOCC2)CC1` [compound 209] are 24.7 nM, 12 nM, 1620 nM and 65.7.

The record behind these values is patent US11352352B2, “Aminopyrimidine compound, preparation method therefor and use thereof” (BEIJING ADAMADLE BIOTECHNOLOGY LIMITED LIABILITY COMPANY, priority 2017, dated 2022).
